Measured values: patent publication US20140273093A1, “METHODS OF PRODUCING ANTIBODIES IN YEAST” (BRISTOL-MYERS SQUIBB COMPANY, priority 2013, published 2014)

System: P. pastoris
Assay: P. pastoris fed-batch fermentation Run 01MAY11: effects of hydroxyurea on cell growth and anti-IL-6 antibody productivity
Type: cell-based, Pichia pastoris
Details: for Sup Titer / WCW / WB Titer: Lots T5, T6 & T10; for Sup Titer / WB Titer: hydroxyurea 2.6-2.8 g/L; for WCW: hydroxyurea 2.6-2.8 g/L added 5 hours after feed start; for WB Titer: calculated from supernatant titer and WCW
Method: The glucose and ethanol were measured by YSI 2700 (YSI Incorporated, Yellow Springs, Ohio), O2 and CO2 of the exhaust line were measured by Questor GP Process Mass Spectrometer (ABB Extrel, Pittsburg, Pa.) and the RQ value was calculated using below Equation [1]. The wet cell weight (WCW) was measured by centrifuging 1 milliliter (mL) fermentation broth at 13,200 rpm for 10 minutes, weighing pellet, and calculated ratio of pellets weight (g) over volume (mL). The supernatant titer (g/L) was measured by the HPLC method and the whole broth (WB) titer was then calculated by below Equation [2].
WB_Titer=Supernatant_Titer*(1−WCW/1000)
The treatment cultures were operated the same way plus adding hydroxyurea 5 hours after feed start.

Structure (SMILES): NC(=O)NO [Hydroxyurea]
- average whole broth titer (90 hours run time, three hydroxyurea treatment lots, control 59.8): 75 normalized units
- Sup Titer (Age 59 h): 83.9 ± 2.2 Normalized
- WCW (Age 59 h): 437 ± 17 g/kg
- WB Titer (Age 59 h): 47.2 ± 1.8 Normalized
- Sup Titer (Age 90 h): 123.3 ± 5.8 Normalized
- WCW (Age 90 h): 392 ± 20 g/kg
- WB Titer (Age 90 h): 75.0 ± 2.7 Normalized
- WCW reached/maintained by hydroxyurea treatment lots (after peak cell density at 30-40 hours, control lots ~400 g/Kg): ~450 g/kg
